The record followed here is paper PMC5365662, “A Short Double-Stapled Peptide Inhibits Respiratory Syncytial Virus Entry and Spreading” (Antimicrobial Agents and Chemotherapy, 2017).

One may read the Kd as a measure of binding affinity in units of concentration.

The structures appear in SMILES notation. Bridge positions count the residues as written; N and C are the ends. Square brackets hold non-standard residues; d marks the D form. Peptide text beside a SMILES is read from it. R8 = C=CCCCCCC[C@@](C)(N)C(=O)O; S5 = C=CCCC[C@](C)(N)C(=O)O

A short description of one data set: circular dichroism. The following applies: 10 mM phosphate; pH 7.5; 25 °C; 50 uM. For orientation: Circular dichroism is widely used to follow secondary structure.
The target of data set [1] is 5HB, a recombinant protein containing 3 HR1 domains covalently attached to 2 HR2 domains. The following applies: competition with fluorescently labeled T108 probe (2 nM), 5HB 50 nM, 10 min preincubation + 30 min room temperature, duplicates.
Data set [2] deals with recombinant GFP-expressing RSV (strain A2) in A549 cells. The class given is cell-based, human respiratory syncytial virus. As to conditions: A549 cells, eGFP RSV, GFP-positive cells by FACS 24 h p.i. As to the method: A549 cells were infected with a recombinant green fluorescent protein (GFP)-expressing RSV (strain A2) ([23]), and the inhibitory activity of the peptide was quantified by flow cytometry.
Each peptide was diluted 3 times by 2-fold serial dilutions. eGFP RSV virus at an MOI of 0.5 was used for the infection, and GFP-positive cells were counted by FACS analysis 24 h p.i. The GFP data were normalized to the fluorescence values observed with virus only and plotted as percent inhibition.
Serial 4-fold dilutions of inhibitors were mixed with eGFP-encoding RSV virus ([23]) with a volume of virus required to achieve approximately 50% of infection in medium containing 2% fetal calf serum. The resulting mixture was added to 24-well plates containing A549 cells. Cells were incubated for 2 h at 37°C, the medium was replaced, and cells were incubated for an additional 24 h. Cells were treated with 300 μl of trypsin for 10 min at 37°C, and the detached cells were diluted in 1 ml of culture medium. Following centrifugation at 1,700 rpm, the pellet was resuspended in 300 μl of PBS–1% fetal bovine serum (FBS) (vol/vol) and GFP-positive cells were counted by fluorescence-activated cell sorter (FACS) analysis. The GFP data were normalized to the fluorescence value observed with virus only. The resulting inhibition curves were fitted in Igor Pro as described above.
For orientation: A flow cytometer gives signals particle by particle.

The nature of data set [3]: Far-UV circular dichroism, α-helical content. The following applies: CD, indicator of α-helical stability. The class given is physicochemical. Here is the method: The circular dichroism spectra were acquired on a Chirascan spectropolarimeter. The samples were prepared in 10 mM phosphate buffer, pH 7.5, at a peptide concentration of 50 μM. Data were recorded at 25°C by step scan from 180 nm to 260 nm in a 0.5-mm path length quartz cell using 1-nm wavelength increments and a response time of 1 s. The data were converted to per residue molar ellipticity units [θ] (degree per square centimeter per decimole per residue) and smoothed using the Igor Pro software. The percentage of helicity was calculated as described previously ([35]).

In turn, `CC[C@H](C)[C@H](NC(=O)[C@H](CCCCN)NC(=O)[C@]1(C)CCCC=CCCCCCC[C@@](C)(NC(=O)[C@H](CC(=O)O)NC(=O)[C@H](Cc2ccccc2)NC(=O)[C@H](CCC(=O)O)NC(=O)[C@H](CC(=O)O)NC(=O)[C@H](CO)NC(=O)[C@@H]2CCCN2C(=O)[C@H](Cc2ccccc2)NC(=O)[C@H](CCC(=O)O)NC(C)=O)C(=O)N[C@@H](CO)C(=O)N[C@@H]([C@@H](C)CC)C(=O)N[C@@H](CO)C(=O)N[C@@H](CCC(N)=O)C(=O)N[C@@H](C(C)C)C(=O)N[C@@H](CC(N)=O)C(=O)N1)C(=O)N[C@@H](CC(N)=O)C(N)=O` [Peptide 1b] (Ac-EFPSDEFD[R8]SISQVN[S5]KIN-NH2; staple 9-16) showed a helicity in the data set “circular dichroism” of 19.8%. Besides, the Kd in data set [1] is 47 ± 6 µM. In addition, the “inhibition of RSV-eGFP infection (in words)” value (“inhibition” below) in data set [2] is “none”.
The corresponding values for `CC[C@H](C)[C@@H]1NC(=O)[C@H](Cc2ccccc2)NC(=O)[C@H](C)NC(=O)[C@H](CC(C)C)NC(=O)[C@H](CO)NC(=O)[C@](C)(NC(=O)[C@H](CCC(=O)O)NC(C)=O)CCCCCCC=CCCC[C@@](C)(C(=O)N[C@@H](CO)C(=O)N[C@@H](CC(=O)O)C(=O)N[C@@H](CCC(=O)O)C(=O)N[C@@H](CC(C)C)C(=O)N[C@@H](CC(C)C)C(=O)N[C@@H](Cc2c[nH]cn2)C(=O)N[C@@H](CC(N)=O)C(=O)N[C@H](C(N)=O)C(C)C)NC(=O)[C@H](CCCNC(=N)N)NC1=O` [Peptide 3d] (Ac-E[R8]SLAFIR[S5]SDELLHNV-NH2; staple 2-9) are 24.4%, 3.2 ± 2.7 µM and “none”.
In “circular dichroism”, `CC[C@H](C)[C@H](NC(=O)[C@H](Cc1ccccc1)NC(=O)[C@H](C)NC(=O)[C@H](CC(C)C)NC(=O)[C@H](CO)NC(=O)[C@H](CCC(N)=O)NC(=O)[C@H](CCC(=O)O)NC(C)=O)C(=O)N[C@@H](CCCNC(=N)N)C(=O)N[C@]1(C)CCCCCCC=CCCC[C@@](C)(C(=O)N[C@H](C(N)=O)C(C)C)NC(=O)[C@H](Cc2c[nH]cn2)NC(=O)[C@H](CC(C)C)NC(=O)[C@H](CC(C)C)NC(=O)[C@H](CCC(=O)O)NC(=O)[C@H](CC(=O)O)NC(=O)[C@H](CO)NC1=O` [Peptide 3f] (Ac-EQSLAFIR[R8]SDELLH[S5]V-NH2; staple 9-16) yielded a helicity of 26.4%. Moreover, the Kd in data set [1] turned out to be 4.1 ± 1.9 µM. Further, in data set [2], the “inhibition” value is recorded as “none”.
For `CC[C@H](C)[C@@H]1NC(=O)[C@H](Cc2ccccc2)NC(=O)[C@@](C)(NC(=O)[C@H](CC(C)C)NC(=O)[C@H](CO)NC(=O)[C@H](CCC(N)=O)NC(=O)[C@H](CCC(=O)O)NC(C)=O)CCCC=CCCC[C@@](C)(C(=O)N[C@@H](CO)C(=O)N[C@@H](CC(=O)O)C(=O)N[C@@H](CCC(=O)O)C(=O)N[C@@H](CC(C)C)C(=O)N[C@@H](CC(C)C)C(=O)N[C@@H](Cc2c[nH]cn2)C(=O)N[C@@H](CC(N)=O)C(=O)N[C@H](C(N)=O)C(C)C)NC(=O)[C@H](CCCNC(=N)N)NC1=O` [Peptide 3a] (Ac-EQSL[S5]FIR[S5]SDELLHNV-NH2; staple 5-9), in that order: 33.9%, 5.8 ± 1.8 µM and “none”.
Take `CC[C@H](C)[C@H](NC(=O)[C@H](CCCCN)NC(=O)[C@]1(C)CCCC=CCCC[C@](C)(NC(=O)[C@@H](NC(=O)[C@H](CO)NC(=O)[C@]2(C)CCCC=CCCC[C@](C)(NC(=O)[C@H](CO)NC(=O)[C@@H]3CCCN3C(=O)[C@H](Cc3ccccc3)NC(=O)[C@H](CCC(=O)O)NC(C)=O)C(=O)N[C@@H](CCC(=O)O)C(=O)N[C@@H](Cc3ccccc3)C(=O)N[C@@H](CC(=O)O)C(=O)N2)[C@@H](C)CC)C(=O)N[C@@H](CCC(N)=O)C(=O)N[C@@H](C(C)C)C(=O)N[C@@H](CC(N)=O)C(=O)N1)C(=O)N[C@@H](CC(N)=O)C(N)=O` [Peptide 1eg] (Ac-EFPS[S5]EFD[S5]SI[S5]QVN[S5]KIN-NH2; staple 5-9, 12-16): the helicity in the data set “circular dichroism” is 35.3%. Further, the “θ208/θ222 molar ellipticity ratio” value in data set [3] is ~1. For the same compound, in data set [1], the Kd turned out to be 24 ± 4 µM.
Compound `CC[C@H](C)[C@H](NC(=O)[C@H](CCCCN)NC(=O)[C@H](CCC(=O)O)NC(=O)[C@H](CC(N)=O)NC(=O)[C@@H](NC(=O)[C@H](CCC(N)=O)NC(=O)[C@]1(C)CCCC=CCCCCCC[C@@](C)(NC(=O)[C@H](CO)NC(=O)[C@@H]2CCCN2C(=O)[C@H](Cc2ccccc2)NC(=O)[C@H](CCC(=O)O)NC(C)=O)C(=O)N[C@@H](CCC(=O)O)C(=O)N[C@@H](Cc2ccccc2)C(=O)N[C@@H](CC(=O)O)C(=O)N[C@@H](C)C(=O)N[C@@H](CO)C(=O)N[C@@H]([C@@H](C)CC)C(=O)N1)C(C)C)C(=O)N[C@@H](CC(N)=O)C(N)=O` [Peptide 1a] (Ac-EFPS[R8]EFDASI[S5]QVNEKIN-NH2; staple 5-12) registered a helicity in the data set “circular dichroism” of 14.2%. Also, the Kd in data set [1] amounted to 9.8 ± 1.5 µM. The “inhibition” value in data set [2] is given as “none”.
Regarding `CC[C@H](C)[C@H](NC(=O)[C@H](CCCCN)NC(=O)[C@H](CCC(=O)O)NC(=O)[C@H](CC(N)=O)NC(=O)[C@@H](NC(=O)[C@H](CCC(N)=O)NC(=O)[C@H](CO)NC(=O)[C@@H](NC(=O)[C@H](CO)NC(=O)[C@H](C)NC(=O)[C@]1(C)CCCC=CCCC[C@](C)(NC(=O)[C@@H]2CCCN2C(=O)[C@H](Cc2ccccc2)NC(=O)[C@H](CCC(=O)O)NC(C)=O)C(=O)N[C@@H](CC(=O)O)C(=O)N[C@@H](CCC(=O)O)C(=O)N[C@@H](Cc2ccccc2)C(=O)N1)[C@@H](C)CC)C(C)C)C(=O)N[C@@H](CC(N)=O)C(N)=O` [Peptide 1d] (Ac-EFP[S5]DEF[S5]ASISQVNEKIN-NH2; staple 4-8), in the data set “circular dichroism”, the helicity worked out at 34.3%. Moreover, in data set [1], the Kd is 8 ± 4 µM. In data set [2], the “inhibition” value is “none”.
In the data set “circular dichroism”, `CC[C@H](C)[C@H](NC(=O)[C@H](CCCCN)NC(=O)[C@H](CCC(=O)O)NC(=O)[C@H](CC(N)=O)NC(=O)[C@@H](NC(=O)[C@]1(C)CCCC=CCCC[C@](C)(NC(=O)[C@H](CC(=O)O)NC(=O)[C@H](Cc2ccccc2)NC(=O)[C@H](CCC(=O)O)NC(=O)[C@H](CC(=O)O)NC(=O)[C@H](CO)NC(=O)[C@@H]2CCCN2C(=O)[C@H](Cc2ccccc2)NC(=O)[C@H](CCC(=O)O)NC(C)=O)C(=O)N[C@@H](CO)C(=O)N[C@@H]([C@@H](C)CC)C(=O)N[C@@H](CO)C(=O)N1)C(C)C)C(=O)N[C@@H](CC(N)=O)C(N)=O` [Peptide 1f] (Ac-EFPSDEFD[S5]SIS[S5]VNEKIN-NH2; staple 9-13) had a helicity of 35.2%. Also, the Kd in data set [1] was 7.4 ± 1.3 µM. In addition, the “inhibition” value in data set [2] is given as “none”.
